Data reported in paper PMC8470058 (Antibiotics, 2021).

Columns and labels:
[1] = both, human, in vivo
Experimental: Researchers conducted the prospective observational study and collected the hospital information and laboratory information at one tertiary hospital from January 2018 to December 2019. […] This study was approved by the Ethics Committee of The Second […] Hospital of Central South University with an approved NO. yxlb-lays-2018012. Venous blood samples (2 mL) were collected into anticoagulant tubes. […] Monitoring continued every 3 days. […] The two-dimensional separation conditions consisted of FRO C18 (100 mm × 3.0 mm, 5 μm, ANAX) and ASTON HD C18 (150 mm × 4.6 mm, 5 μm, ANAX) with the same flow rate 1.0 mL/min. […] This laboratory participated in the annual national external quality assessment scheme. […] The Child-Pugh class and MELD score were calculated based on previous criteria. The Pearson correlation and nonparametric Spearman correlation were used to study the relationship between clinical or laboratory data and Cmins during the therapy, according to the type of variables. […] The Cmins measured after withdrawal or lack of the corresponding key values of clinical or laboratory data were excluded in pairs in the bivariate correlation analysis or in rows in the multiple linear regression. For the regression analysis, the genotype of CYP2C19 was set as a dummy variable.

[2] = CP-C patients in ICU; cited from earlier work
[3] = cited from earlier work
[4] = Voriconazole-related adverse events in Child–Pugh class C patients; format: in vivo, human
Description: Forty-three CP-C Asian patients were eligible to participate in the study (Figure 1a). The female-to-male ratio was 4/39. The mean patient age and weight were 49.35 ± 11.65 years (range, 32 to 89 years) and 61.27 ± 12.87 kg (range, 36 to 99 kg). […] The median sampling time of C0 was 5 days (interquartile range (IQR), 3 to 5 days; range, 3 to 11 days).
Researchers conducted the prospective observational study and collected the hospital information and laboratory information at one tertiary hospital from January 2018 to December 2019. […] The administration regimen is mainly under empirical treatment regimens, and the adjustment is generally based on the results of TDM. This study was approved by the Ethics Committee of The Second XiangYa Hospital of Central South University with an approved NO. yxlb-lays-2018012.
Data were extracted from medical records and laboratory information systems, including voriconazole-related information (Cmins, timing, amount, route), demographics, laboratory data, and concomitant medications (antimicrobial agents, CYP2C19 inducers, and inhibitors). The first trough concentration, the repeated measured ones and the last one of patients were recorded as C0, C1, Css, respectively. The Child–Pugh class and MELD score were calculated based on previous criteria.

C[C@@H](c1ncncc1F)[C@](O)(Cn1cncn1)c1ccc(F)cc1F [voriconazole]
Decrease of Cmin in male patients compared to the female [1]: 1651 ng/mL | Decrease of concentration with a one-unit increase in PTA count [1]: 0.035 mg/L | Patients with targeted C0 reaching supratherapeutic levels with no adjusted daily dose [1]: 25.8% | Change of terminal half-life (t1/2) [2]: increased about five times | Median terminal t1/2 [2]: 60.7 h | Oral bioavailability [3]: 91.6% | Patients with adverse events identified as voriconazole related ([4]; 20 of 43 patients, dizziness, hallucinations, visual disturbance): 46.5% | Median duration from voriconazole initiation to onset of adverse events ([4]; range, 1 to 12 days): 2 days
